The text below walks through data of US20200375944A1, “LIPOIC ACID CHOLINE ESTER COMPOSITIONS AND METHODS TO GENERATE BIOCOMPATIBLE OPHTHALMIC FORMULATIONS” (ENCORE VISION, INC., priority 2015, published 2020).

In data set [1] the test system is mouse lenses. Particulars: ex-vivo; cited from earlier work.
Data set [2] relates to human donor lenses. The following applies: ex-vivo; cited from earlier work.
Data set [3] in a line: Osmolality of EV06 compositions adjusted with glycerol. In kind it is physicochemical. On the procedure: The requisite osmolality range for drug-containing formulations and placebo is 280-320 mOsm/kg. Preferably, all LACE formulations need to be within 290-310 mOsm/Kg.
A series of placebos was prepared. All placebos, and the LACE-containing solutions that were subsequently prepared, contained the following, with varying amounts of Glycerol: • 0.5% (5 mg/g) Alanine • 0.005% (0.05 mg/g) Benzalkonium Chloride • Small amounts of 1 N Sodium Hydroxide, 1 N Hydrochloric Acid, to adjust pH to 4.5 • Water for Injection (added for final weight)
Target for Total Osmolality was 300 mOsm/kg.
Accordingly, a full series of solutions was prepared with slightly altered target osmolalities for the solutions without LACE, and therefore different target glycerol contents. All solutions were prepared using the same Alanine/Benzalkonium Chloride, pH 4.5 stock solution used in the placebos, so that the final composition was consistently: […]

A short description of data set [4]: Solution pH of LACE. Format: physicochemical.
The nature of data set [5]: Solubility profile of LACE. In kind it is physicochemical.
A short description of data set [6]: Hygroscopicity of LACE. Format: physicochemical.
A short description of data set [7]: Degradation of LACE formulation in storage (HPLC). In kind it is physicochemical. The text has this: An issue that has rendered formulation of LACE problematic has been the propensity to destabilize by ring-opening of the dithiolane linkage to form oxidized species that compromise the activity of the molecule.
Data set [8] in a line: Log P of LACE. In kind it is physicochemical.
[9] abbreviates: Applicant's earlier observations.

Each structure is given as a SMILES string.

With `O=C(O)CCCC[C@@H]1CCSS1` (racemic) [lipoic acid], the Lens softening result in data set [1] is on record as “lens softening can be induced pharmacologically”.
Take `O[C@H](CS)[C@H](O)CS` (racemic) [dithiothreitol (DTT), dithiothreitol]: the Lens softening entry in data set [2] was “lens softening can be induced pharmacologically”.
What is called Log P is the decadic logarithm of the partition coefficient of the neutral form, usually between octanol and water. Low values mean lower lipophilicity, high ones higher lipophilicity. As for `C[N+](C)(C)CCOC(=O)CCCC[C@@H]1CCSS1` [LACE, Lipoic acid choline ester], in data set [3] (setting [9]), the “Additional osmolality for every 1% LACE” value is reported as 44-55 mOsm/kg and the “Additional osmolality for every 1% LACE, average” value is reported as 48 mOsm/kg. Further, the “Effect of LACE on osmolality for every 1%” value in data set [3] (from Table 7 series) is given as 57-60 mOsm/kg. In data set [4], the “Solution pH” value is reported as 7-7.5. For the same molecule, the Solubility in acetonitrile in data set [5] (acetonitrile) was over 4 mg/mL in acetonitrile. Also, the Solubility in water in data set [5] (water) is given as over 50 mg/mL in water. Further, in data set [6], the Hygroscopicity result was “Highly hygroscopic”. Also, in data set [7] (refrigerated temperatures), the Degradation in storage result was “rapid oxidation occurs in storage as early as 1 week”. Further, the Degradation in storage entry in data set [7] (room temperature) is reported as “rapidly degrades into oxidized species”. The “Log P” value in data set [8] was under 2.
